The values that follow come from patent US11633370B2, “Use of scavengers of reactive gamma-ketoaldehydes to extend cell lifespan and healthspan” (Vanderbilt University, priority 2016, dated 2023).

Experiment [1] has as its system VC199 (SIR-2.1 deficient strain). In words: F3-IsoP quantification by GC/MS, VC199. Particulars: any dose of SA tested, Day 15. The experiment is classed as in vivo, C. elegans. An excerpt: (§1) One of the major stimuli for activation of sirtuins is oxidative stress. […] Indeed, the mitochondrial antioxidant manganese superoxide dismutase (MnSOD) has been identified as one of the major protein targets that is deacetylated by sirtuin isoforms, with deacetylation enhancing the enzymatic activity of MnSOD [60]. If SA indeed preserves SIR-2.1 enzymatic function in vivo, the present inventors hypothesized that SA treatment would dose-dependently decrease biomarkers of oxidant injury in a SIR-2.1-dependent manner. To quantify oxidant injury, the present inventors measured F3-isoprostanes (F3-IsoPs). […] To further characterize SA's ability to preserve SIR-2.1 function, the present inventors assessed acetylation of MnSOD at Lys 122.
F3-Isoprostanes were quantified from SA-treated worms a gas-chromatography-negative ion chemical ionization-mass spectrometry (GC-NICI-MS) approach. […]
Samples were spiked with 248 pg of deuterated internal standards, [^2H4]-15-F2t-IsoP, quantified and calibrated by the method of Milne et al. and acidified to pH<3 with HCl in preparation for further Separation Phase Extraction (SPE). […]
Eluates were dried under nitrogen and F3—IsoPs and resuspended in MeOH for separation by Thin Layer Chromatography (TLC). […] Deuterated F2-IsoP standard was measured at m/z 573. F3—IsoP was measured at m/z 567. […]

In a further experiment the test system is MnSOD. In words: Western blot of acetyl-Lys 122 MnSOD. It is filed as in vivo, C. elegans. The conditions noted are these: 500 μM SA, day 15; WT N2 compared to VC199 treated with the same dose; P>0.05.
Text: as §1, with “(F3-IsoPs). F3-IsoPs are the products of free radical-mediated peroxidation of eicosapentaenoic acid (EPA), and are known to be a highly sensitive and accurate marker of oxidative damage in Caenorhabditis elegans. F3—IsoPs were collected from WT N2 and from VC199 (SIR-2.1 deficient strain) nematodes grown on OP50-NGM agar plates containing increasing concentrations of SA from Day 1 of adulthood until collection at Day 15.” for “(F3-IsoPs).”
Day 15 adult worms grown on FUDR containing SA-OP50-seeded NGM plates were harvested in M9 medium, followed by floatation on an ice-cold 60% w/v sucrose gradient to segregate clean bacteria-free adult worms from bacterial debris. […]

In a further experiment the test system is mice. Particulars: administering SA in mice; cited from earlier work.

Take `NCc1ccccc1O` [SA, salicylamine]: the F3-IsoP levels entry in experiment [1] is “did not significantly decrease”. Besides, the “acetyl-Lys 122 in MnSOD” value in the experiment on MnSOD is listed as “trend toward lower acetyl-Lys 122”. Further, the “development of angiotensin II-induce hypertension” value with mice is “prevents”.
